Patent US9999622B2, “Pyrazolothiazole compound and medicine comprising same” (NIPPON SHINYAKU CO., LTD., priority 2014, dated 2018)
Structures can show the parent of a compound that is named as a salt.

Key:
JAK1 = biological target: T1, JAK1 (Homo sapiens, UniProt P23458); test: JAK tyrosine kinase inhibitory activity in the presence of 1 mM ATP (ELISA), JAK1; type: biochemical
T1 construct: purchased Carna Biosciences, Inc
In short: (§1)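 Recombinant kinase (7.5 nM JAK1; 0.75 nM JAK2, JAK3 working dilutions) reacted 1 h at 30 °C with 1 mM ATP in Tris-HCl pH 7.5, Tween-20, DTT, on streptavidin plates. Phosphotyrosine detected by HRP anti-pTyr antibody ELISA, TMB absorbance at 450 nm; duplicate wells, DMSO as negative control.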

JAK3 = biological target: T2, JAK3 (Homo sapiens, UniProt P52333); test: JAK tyrosine kinase inhibitory activity in the presence of 1 mM ATP (ELISA), JAK3; type: biochemical
T2 construct: purchased Carna Biosciences, Inc
T2 sequence (P52333 1-1124): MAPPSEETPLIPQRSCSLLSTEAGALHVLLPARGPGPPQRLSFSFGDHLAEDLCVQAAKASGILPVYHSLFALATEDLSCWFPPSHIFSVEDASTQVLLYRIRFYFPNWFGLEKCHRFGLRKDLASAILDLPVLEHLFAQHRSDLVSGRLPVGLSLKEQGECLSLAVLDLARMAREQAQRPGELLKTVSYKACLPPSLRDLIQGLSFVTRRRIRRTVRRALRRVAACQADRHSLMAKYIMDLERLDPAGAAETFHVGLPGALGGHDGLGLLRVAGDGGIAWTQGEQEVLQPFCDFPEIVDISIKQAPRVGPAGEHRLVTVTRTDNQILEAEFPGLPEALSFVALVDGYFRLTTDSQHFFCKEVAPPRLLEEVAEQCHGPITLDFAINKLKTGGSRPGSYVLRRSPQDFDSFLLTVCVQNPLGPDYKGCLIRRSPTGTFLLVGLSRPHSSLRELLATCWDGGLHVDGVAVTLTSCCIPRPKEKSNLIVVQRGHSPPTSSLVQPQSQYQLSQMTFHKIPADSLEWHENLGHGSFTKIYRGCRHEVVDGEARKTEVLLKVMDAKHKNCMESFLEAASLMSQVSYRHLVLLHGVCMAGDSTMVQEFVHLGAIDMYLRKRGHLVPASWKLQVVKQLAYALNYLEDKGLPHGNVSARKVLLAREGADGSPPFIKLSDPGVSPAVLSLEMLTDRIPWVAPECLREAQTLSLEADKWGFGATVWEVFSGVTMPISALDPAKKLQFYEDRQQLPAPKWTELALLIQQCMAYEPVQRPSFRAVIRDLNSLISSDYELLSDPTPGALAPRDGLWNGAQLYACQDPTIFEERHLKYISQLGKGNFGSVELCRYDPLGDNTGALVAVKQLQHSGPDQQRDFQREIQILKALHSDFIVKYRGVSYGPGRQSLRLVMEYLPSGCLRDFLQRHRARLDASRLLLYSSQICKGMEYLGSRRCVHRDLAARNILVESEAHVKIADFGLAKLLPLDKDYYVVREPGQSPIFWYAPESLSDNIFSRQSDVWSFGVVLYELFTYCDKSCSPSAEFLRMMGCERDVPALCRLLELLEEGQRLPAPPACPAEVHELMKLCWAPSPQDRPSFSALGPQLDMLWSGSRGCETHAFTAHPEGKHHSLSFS
In short: as §1

[1] = tested on: Aspergillus-induced airway inflammation model; test: Inhibitory effect on Aspergillus-induced airway inflammation model; type: in vivo; details: Mus musculus, Eosinophil, po, 240 h, mice, 10 mg/mL suspension at 10 mL/kg twice a day Day 0 to Day 9, BALF collected at Day 10, read-out: Inhibition rate on count of invasive eosinophil in BALF (%)
Protocol: Aspergillus fumigatus extracts (Greer laboratories, Inc.) were adjusted to 400 μg/mL with PBS. The Aspergillus fumigatus solutions thus prepared were administered to mice as nasal drops (50 μL) on Day 0, Day 1, Day 7 and Day 8. The nasal drop was administered one hour after the administration of test compounds in the morning. The test compound was administered twice a day in the morning and evening of Day 0 to Day 9. The test compound was suspended in 0.5% methylcellulose at 10 mg/mL, and orally administered at the dosage of 10 mL/kg. The bronchoalveolar lavage fluid (BALF) was collected at Day 10, and the total white blood cell count in BALF was measured using Celltac (NIHON KOHDEN). The ratio of eosinophil in total white blood cell was calculated using ADVIA 120 (Siemens Healthcare Diagnostics), and the ratio was multiplied by the total white blood cell count to determine the eosinophil count in BALF. The inhibition rate of the test compound was determined, assuming the inhibitory ratio in the treatment with Aspergillus fumigatus extract and 0.5% methylcellulose as 0% and the inhibitory ratio in the treatment without Aspergillus fumigatus extract but with 0.5% methylcellulose as 100%.

JAK2 = biological target: T3, JAK2 (Homo sapiens, UniProt O60674); test: JAK tyrosine kinase inhibitory activity in the presence of 1 mM ATP (ELISA), JAK2; type: biochemical
T3 construct: purchased Carna Biosciences, Inc
In short: as §1

T1 sequence (P23458 whole entry): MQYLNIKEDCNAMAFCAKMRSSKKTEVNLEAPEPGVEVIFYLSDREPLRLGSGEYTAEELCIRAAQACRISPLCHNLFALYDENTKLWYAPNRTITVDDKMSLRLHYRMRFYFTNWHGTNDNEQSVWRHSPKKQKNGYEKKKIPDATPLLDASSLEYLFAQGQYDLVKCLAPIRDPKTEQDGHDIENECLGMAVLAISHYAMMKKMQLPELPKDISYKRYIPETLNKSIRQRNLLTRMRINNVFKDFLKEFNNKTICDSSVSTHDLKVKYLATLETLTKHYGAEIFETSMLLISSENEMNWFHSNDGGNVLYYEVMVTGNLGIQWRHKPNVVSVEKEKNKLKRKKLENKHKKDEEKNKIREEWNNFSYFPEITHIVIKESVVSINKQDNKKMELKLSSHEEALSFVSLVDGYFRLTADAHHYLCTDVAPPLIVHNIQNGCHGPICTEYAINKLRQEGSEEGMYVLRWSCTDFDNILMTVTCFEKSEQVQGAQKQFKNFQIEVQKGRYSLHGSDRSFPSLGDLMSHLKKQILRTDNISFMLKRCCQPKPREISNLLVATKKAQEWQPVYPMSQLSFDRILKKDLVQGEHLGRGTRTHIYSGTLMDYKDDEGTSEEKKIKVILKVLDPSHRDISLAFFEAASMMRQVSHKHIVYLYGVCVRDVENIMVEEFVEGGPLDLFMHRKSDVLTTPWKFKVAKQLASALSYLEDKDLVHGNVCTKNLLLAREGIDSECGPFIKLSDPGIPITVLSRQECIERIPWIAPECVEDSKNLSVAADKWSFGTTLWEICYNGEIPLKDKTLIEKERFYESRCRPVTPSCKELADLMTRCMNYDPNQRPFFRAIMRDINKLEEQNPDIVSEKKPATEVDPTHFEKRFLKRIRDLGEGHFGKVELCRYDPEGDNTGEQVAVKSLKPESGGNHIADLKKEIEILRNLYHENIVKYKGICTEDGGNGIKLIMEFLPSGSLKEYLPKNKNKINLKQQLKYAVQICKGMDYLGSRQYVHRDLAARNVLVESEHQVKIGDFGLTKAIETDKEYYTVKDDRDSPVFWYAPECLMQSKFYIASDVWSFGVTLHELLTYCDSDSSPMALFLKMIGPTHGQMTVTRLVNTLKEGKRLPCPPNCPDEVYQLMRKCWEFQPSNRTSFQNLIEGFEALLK
T3 sequence (O60674 whole entry): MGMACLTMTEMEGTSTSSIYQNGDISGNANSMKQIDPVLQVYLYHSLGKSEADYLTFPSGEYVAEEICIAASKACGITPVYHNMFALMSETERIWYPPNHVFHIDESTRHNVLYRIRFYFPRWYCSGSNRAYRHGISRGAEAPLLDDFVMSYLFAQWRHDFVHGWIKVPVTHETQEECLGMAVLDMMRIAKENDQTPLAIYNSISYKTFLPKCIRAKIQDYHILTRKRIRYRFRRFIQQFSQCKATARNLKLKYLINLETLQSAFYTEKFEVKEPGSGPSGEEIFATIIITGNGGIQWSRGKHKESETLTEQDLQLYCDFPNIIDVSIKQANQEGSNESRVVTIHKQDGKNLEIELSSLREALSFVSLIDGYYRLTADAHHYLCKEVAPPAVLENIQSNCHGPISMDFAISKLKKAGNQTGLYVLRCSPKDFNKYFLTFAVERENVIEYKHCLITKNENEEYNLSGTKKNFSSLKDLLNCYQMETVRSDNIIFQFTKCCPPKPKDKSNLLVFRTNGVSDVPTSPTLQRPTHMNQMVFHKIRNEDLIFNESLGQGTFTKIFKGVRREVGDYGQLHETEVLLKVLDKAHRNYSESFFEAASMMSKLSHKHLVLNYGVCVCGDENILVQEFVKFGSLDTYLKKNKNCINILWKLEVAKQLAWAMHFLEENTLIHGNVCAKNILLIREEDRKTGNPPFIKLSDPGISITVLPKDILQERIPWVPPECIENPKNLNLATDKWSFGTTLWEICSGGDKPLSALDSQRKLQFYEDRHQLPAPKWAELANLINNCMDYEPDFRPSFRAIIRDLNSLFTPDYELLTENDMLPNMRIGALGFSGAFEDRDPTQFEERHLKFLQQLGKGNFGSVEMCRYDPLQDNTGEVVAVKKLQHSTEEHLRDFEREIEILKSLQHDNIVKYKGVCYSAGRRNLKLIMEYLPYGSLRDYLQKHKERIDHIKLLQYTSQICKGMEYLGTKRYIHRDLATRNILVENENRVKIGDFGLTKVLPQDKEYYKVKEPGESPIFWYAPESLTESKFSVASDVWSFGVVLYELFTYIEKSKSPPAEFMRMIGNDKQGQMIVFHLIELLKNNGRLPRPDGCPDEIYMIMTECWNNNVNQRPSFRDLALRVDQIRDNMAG

**Q.** With `C[C@@H](Nc1cc(C(=O)N2CCC(NC(=O)OCC(F)F)CC2)nc(-c2cnn3ccsc23)n1)C(C)(C)C` [Example 97, 2,2-Difluoroethyl (1-{[6-{[(2R)-3,3-dimethylbutan-2-yl]amino}-2-(pyrazolo[5,1-b][1,3]thiazol-7-yl)pyrimidin-4-yl]carbonyl}piperidin-4-yl)carbamate hydrochloride] as the compound, how does the IC50 (JAK1) read?
**A.** The IC50 was 210 nM.

**Q.** And the IC50 (JAK3)?
**A.** The IC50 was 2700 nM.

**Q.** What about the inhibition in vivo at 10000 µg/mL, 100 mg/kg [1] of the same compound?
**A.** The inhibition in vivo at 10000 µg/mL, 100 mg/kg was 43%.

**Q.** What about the IC50 (JAK2) of the same compound?
**A.** The IC50 was 1300 nM.
